One assay relates to S. aureus 585. The assay is described as follows: MIC, hospital MRSA strain. Type of assay: cell-based, Staphylococcus aureus. The following applies: hospital MRSA S. aureus 585. On the procedure:
(§1) The antimicrobial activity of the compounds was tested on Gram-positive bacteria (Staphylococcus aureus NCTC 4163, Staphylococcus aureus ATCC 25923, Staphylococcus aureus ATCC 6538, Staphylococcus aureus ATCC 29213, Staphylococcus epidermidis ATCC 12228, Staphylococcus epidermidis ATCC 35984), Gram-negative rods (Escherichia coli ATCC 10538, Escherichia coli ATCC 25922, Pseudomonas aeruginosa ATCC 15442, Pseudomonas aeruginosa ATCC 27863) and yeasts (Candida albicans ATCC 10231, Candida albicans ATCC 90028, Candida parapsilosis ATCC 22019). Hospital methicillin-resistant strains of Staphylococcus aureus and Staphylococcus epidermidis were obtained from the collection of the Department of Pharmaceutical Microbiology, Medical University of Warsaw, Poland.
(§2) Antifungal activities were assessed using Mueller–Hinton agar + 2% glucose and 0.5 µg/mL methylene blue dye medium. Sterile filter paper discs (9 mm diameter, Whatman Number 3 chromatography paper) were dripped with tested compound solutions (in dimethylsulfoxide, DMSO) to load 400 μg of a given compound per disc. Dry discs were placed on the surface of appropriate agar medium. The results (diameter of the growth inhibition zone) were read after 18 h of incubation at 35 °C. Minimal inhibitory concentration (MIC) was tested by the twofold serial microdilution method (in 96-well microtiter plates) using Mueller–Hinton broth medium (Beckton Dickinson) for bacteria or RPMI-1640 medium for Candida species, according to CLSI guidelines. The stock solution of tested agent was prepared in DMSO and diluted in sterile water. […] The final inoculum of all studied microorganisms was 10^5 CFU/ mL^−1 (colony forming units per ml). Minimal inhibitory concentrations (the lowest concentration of a tested agent that prevents visible growth of a microorganism) were read after 18 h (bacteria) or 24 h (yeasts) of incubation at 35 °C.

The test system of another assay is S. aureus 572. The assay is described as follows: MIC, hospital MRSA strain. It counts as cell-based, Staphylococcus aureus. The following applies: for MIC: hospital MRSA S. aureus 572; for times more active than ciprofloxacin: S. aureus 572. The method, then: as §1, §2
The next assay concerns S. aureus 522. The assay is described as follows: MIC, hospital MRSA strain. The following applies: hospital MRSA S. aureus 522. Type of assay: cell-based, Staphylococcus aureus. The method, then: as §1, §2
For a further assay, the system named is S. aureus 497. The assay is described as follows: MIC, hospital MRSA strain. The following applies: hospital MRSA S. aureus 497. Type of assay: cell-based, Staphylococcus aureus. On the procedure: as §1, §2
A further assay has as its system S. aureus 537. The assay is described as follows: MIC, hospital MRSA strain. It counts as cell-based, Staphylococcus aureus. The following applies: hospital MRSA S. aureus 537. The method, then:
as §1, §2

A further assay relates to S. aureus 496. The experiment in a line: MIC, hospital MRSA strain. The following applies: hospital MRSA S. aureus 496. Type of assay: cell-based, Staphylococcus aureus. On the procedure: as §1, §2
In the next assay the test system is S. aureus 573. The assay is described as follows: MIC, hospital MRSA strain. Type of assay: cell-based, Staphylococcus aureus. Conditions: hospital MRSA S. aureus 573. The method, then: as §1, §2
The subject of a further assay is S. aureus 568. The assay is described as follows: MIC, hospital MRSA strain. The following applies: hospital MRSA S. aureus 568. Type of assay: cell-based, Staphylococcus aureus. On the procedure:
as §1, §2

A further assay concerns S. aureus 514. The assay is described as follows: MIC, hospital MRSA strain. Type of assay: cell-based, Staphylococcus aureus. Conditions: hospital MRSA S. aureus 514. The method, then:
as §1, §2

In another assay the test system is S. aureus 567. The experiment in a line: MIC, hospital MRSA strain. Type of assay: cell-based, Staphylococcus aureus. Conditions: hospital MRSA S. aureus 567. On the procedure: as §1, §2
For the next assay, the system named is S. aureus 586. The experiment in a line: MIC, hospital MRSA strain. It counts as cell-based, Staphylococcus aureus. The following applies: hospital MRSA S. aureus 586. On the procedure:
as §1, §2

For another assay, the system named is S. aureus 498. The experiment in a line: MIC, hospital MRSA strain. It counts as cell-based, Staphylococcus aureus. Conditions: hospital MRSA S. aureus 498. The method, then: as §1, §2
In another assay the test system is S. aureus 495. The experiment in a line: MIC, hospital MRSA strain. Type of assay: cell-based, Staphylococcus aureus. Conditions: hospital MRSA S. aureus 495. The method, then:
as §1, §2

Assay [1] deals with SW480 (human primary colon cancer). The experiment in a line: MTT cytotoxicity assay, SW480. It counts as cell-based. The following applies: SW480, 72 h. The method, then: The human primary (SW480), metastatic (SW620) colon cancer, metastatic prostate cancer (PC3) and human immortal keratinocyte (HaCaT) cell lines were purchased from the American Type Culture Collection (ATCC, Rockville, USA). The cells were cultured in medium according to protocols (MEM for SW480 and SW620, RPMI 1640 for PC3 and DMEM for HaCaT cells) supplemented with 10% fetal bovine serum (FBS), penicillin (100 U/mL) and streptomycin (100 μg/mL) and cultured in 37 °C/ 5% CO2 humidified incubator. The cells were cultured until appropriate confluence was achieved (80–90%). Next, they were harvested by treatment with 0.25% trypsin (Gibco Life Technologies, USA) and used for studies.
Cells without studied compounds in medium were used as a control.
The cell viability was assessed by determination of MTT salt (3-(4,5-dimethylthiazol-2-yl)-2,5-diphenyltetrazolium bromide) conversion by mitochondrial dehydrogenase. MTT assay was performed as previously described. Experiments were repeated three times. Cell viability was presented as a percentage of MTT reduction in the treated cells versus the control cells. Number of viable cells cultured without studied compounds was assumed to be 100%. Decreased relative MTT level means decreased cell viability. Thiourea complexes with the highest cytotoxic potential assessed by MTT determination (with the lowest IC50) were chosen for subsequent assessments of cytotoxicity mechanisms.
(In general: Formazan colour is commonly taken as a measure of viable cells.)

In assay [2] the test system is C. parapsilosis ATCC 22019. The experiment in a line: MIC, twofold serial microdilution. Type of assay: cell-based, Candida parapsilosis. The following applies: C. parapsilosis ATCC 22019, 24 h, 35 °C. The method, then:
as §1, §2
Background: In broth dilution the organism is exposed to a series of concentrations in liquid medium.

In assay [3] the test system is S. epidermidis ATCC 35984. The experiment in a line: MIC, twofold serial microdilution. It counts as cell-based, Staphylococcus epidermidis. Conditions: S. epidermidis ATCC 35984, 18 h, 35 °C. The method, then: as §1, §2
For assay [4], the system named is S. epidermidis ATCC 12228. The assay is described as follows: MIC, twofold serial microdilution. Type of assay: cell-based, Staphylococcus epidermidis. Conditions: S. epidermidis ATCC 12228, 18 h, 35 °C. On the procedure:
as §1, §2

The test system of a further assay is C. albicans ATCC 10231. The assay is described as follows: MIC, twofold serial microdilution. Type of assay: cell-based, Candida albicans. Conditions: C. albicans ATCC 10231, 24 h, 35 °C. On the procedure:
as §1, §2

Another assay has as its system C. albicans ATCC 90028. The experiment in a line: MIC, twofold serial microdilution. It counts as cell-based, Candida albicans. The following applies: C. albicans ATCC 90028, 24 h, 35 °C. On the procedure:
as §1, §2

A word on the MIC: it is the lowest concentration found to suppress growth. A lower MIC goes with greater potency. What is called IC50 is the concentration at which inhibition is half-maximal. Higher therefore signals weaker potency. In the case of `O=[N+]([O-])c1cc([N+]2=C(Nc3ccc(Cl)c(Cl)c3)[S][Cu-2]23[S]C(Nc2ccc(Cl)c(Cl)c2)=[N+]3c2ccc(Cl)c([N+](=O)[O-])c2)ccc1Cl` [Compound 5, Copper (II) complex with 1-(4-chloro-3-nitrophenyl)-3-(3,4-dichlorophenyl)thiourea], the MIC in the assay with S. aureus 585 is listed as 16 µg/mL; in the assay with S. aureus 572, 16 µg/mL; against S. aureus 522, 16 µg/mL; against S. aureus 497, 16 µg/mL; in the assay with S. aureus 537 it was 16 µg/mL; with S. aureus 496, 32 µg/mL. Besides, the MIC in the assay with S. aureus 573 was 16 µg/mL; against S. aureus 568, 16 µg/mL; against S. aureus 514, 32 µg/mL; against S. aureus 567, 16 µg/mL; against S. aureus 586, 16 µg/mL; against S. aureus 498, 16 µg/mL. In addition, the MIC against S. aureus 495 is 16 µg/mL; in assay [2], 64 µg/mL; in [3], 32 µg/mL; in [4], 32 µg/mL; against C. albicans ATCC 10231, 128 µg/mL; with C. albicans ATCC 90028, 128 µg/mL. The half-maximal inhibitory concentration (IC50) in assay [1] came out at 20.6 ± 2.1 µM.
On to `O=[N+]([O-])c1cc(NC2=[N+](c3ccc(Cl)c([N+](=O)[O-])c3)[Cu-2]3([S]2)[S]C(Nc2ccc(Cl)c([N+](=O)[O-])c2)=[N+]3c2ccc(Cl)c([N+](=O)[O-])c2)ccc1Cl` [Compound 6, Copper (II) complex with 1,3-bis(4-chloro-3-nitrophenyl)thiourea], for which the MIC against S. aureus 585, in the assay on S. aureus 572, in the assay on S. aureus 522, in the assay on S. aureus 497, against S. aureus 537 and in the assay with S. aureus 496 was 32 µg/mL each time. Further, the MIC in the assay with S. aureus 573, in the assay with S. aureus 568, in the assay on S. aureus 514, against S. aureus 567, with S. aureus 586 and against S. aureus 498 was 32 µg/mL each time. Also, the MIC against S. aureus 495 came to 32 µg/mL; in [2], 64 µg/mL; in assay [3], 8 µg/mL; in [4], 8 µg/mL; against C. albicans ATCC 10231, 64 µg/mL; against C. albicans ATCC 90028, 64 µg/mL. In assay [1], this compound showed an IC50 of 26.8 ± 2.3 µM.
With `O=[N+]([O-])c1cc([N+]2=C(Nc3ccccc3F)[S][Cu-2]23[S]C(Nc2ccccc2F)=[N+]3c2ccc(Cl)c([N+](=O)[O-])c2)ccc1Cl` [Compound 7, Copper (II) complex with 1-(2-fluorophenyl)-3-(4-chloro-3-nitrophenyl)thiourea], the MIC is 8 µg/mL against S. aureus 585; 4 µg/mL against S. aureus 572; 8 µg/mL in the assay on S. aureus 522; 8 µg/mL in the assay with S. aureus 497; 8 µg/mL with S. aureus 537; 8 µg/mL in the assay on S. aureus 496. Also, the MIC is 8 µg/mL against S. aureus 573; 8 µg/mL in the assay on S. aureus 568; 8 µg/mL with S. aureus 514; 4 µg/mL in the assay on S. aureus 567; 8 µg/mL with S. aureus 586; 4 µg/mL in the assay on S. aureus 498. The MIC in the assay on S. aureus 495 stood at 8 µg/mL; in assay [2], 128 µg/mL; in [3], 32 µg/mL; in [4], 32 µg/mL; in the assay with C. albicans ATCC 10231, 128 µg/mL; against C. albicans ATCC 90028, 128 µg/mL. For the same compound, the “times more active than ciprofloxacin” value in the assay with S. aureus 572 was determined as 64 times. In addition, the IC50 in [1] stood at 15.5 ± 2.6 µM.
In the case of `O=[N+]([O-])c1cc([N+]2=C(Nc3cccc(Br)c3)[S][Cu-2]23[S]C(Nc2cccc(Br)c2)=[N+]3c2ccc(Cl)c([N+](=O)[O-])c2)ccc1Cl` [Compound 2, Copper (II) complex with 1-(3-bromophenyl)-3-(4-chloro-3-nitrophenyl)thiourea], the minimal inhibitory concentration (MIC) in the assay with S. aureus 585, against S. aureus 572, in the assay on S. aureus 522, in the assay with S. aureus 497, against S. aureus 537 and with S. aureus 496 was 8 µg/mL in each case. Also, the MIC in the assay with S. aureus 573, with S. aureus 568, against S. aureus 514, in the assay with S. aureus 567, in the assay with S. aureus 586 and against S. aureus 498 was 8 µg/mL throughout. Further, the MIC against S. aureus 495 was 8 µg/mL; in assay [2], 64 µg/mL; in [3] it was 16 µg/mL; in assay [4], 16 µg/mL; in the assay with C. albicans ATCC 10231 it was 64 µg/mL; against C. albicans ATCC 90028, 64 µg/mL. In addition, in [1], the midpoint of inhibition, the IC50, lay at 24.3 ± 2.6 µM.
As for `O=[N+]([O-])c1cc([N+]2=C(Nc3ccc(Br)cc3)[S][Cu-2]23[S]C(Nc2ccc(Br)cc2)=[N+]3c2ccc(Cl)c([N+](=O)[O-])c2)ccc1Cl` [Compound 3, Copper (II) complex with 1-(4-bromophenyl)-3-(4-chloro-3-nitrophenyl)thiourea], the MIC in the assay with S. aureus 585, against S. aureus 572, in the assay on S. aureus 522, against S. aureus 497, in the assay with S. aureus 537 and with S. aureus 496 was 4 µg/mL each time. For the same compound, the MIC in the assay on S. aureus 573, with S. aureus 568, with S. aureus 514, with S. aureus 567, against S. aureus 586 and in the assay with S. aureus 498 was 4 µg/mL throughout. The MIC with S. aureus 495 came to 4 µg/mL; in assay [2] it was 64 µg/mL; in [3] it was 16 µg/mL; in [4], 16 µg/mL; against C. albicans ATCC 10231, 64 µg/mL; in the assay on C. albicans ATCC 90028, 64 µg/mL. The “times more active than ciprofloxacin” value in the assay with S. aureus 572 worked out at 64 times. Besides, in [1], the IC50 is 11.9 ± 2.1 µM.

The record behind these values is paper PMC8584173, “The Cytotoxic Effect of Copper (II) Complexes with Halogenated 1,3-Disubstituted Arylthioureas on Cancer and Bacterial Cells” (International Journal of Molecular Sciences, 2021).
